From ChEMBL document CHEMBL5331047 (Eur J Med Chem, 2022)

Tests used:
[1] = Induction of drug resistance in influenza A virus H3N1 expressing neuraminidase N294S mutant assessed as reduction in susceptibility relative to control; assay type: functional; parameters: scale not given: the % may be the effect or the level left
[2] = Induction of drug resistance in influenza A virus H1N1 expressing neuraminidase I222R mutant assessed as reduction in susceptibility relative to control; assay type: functional; parameters: scale not given: the % may be the effect or the level left
[3] = Induction of drug resistance in influenza A virus H1N1 expressing neuraminidase S246N mutant assessed as reduction in susceptibility relative to control; assay type: functional; parameters: scale not given: the % may be the effect or the level left
[4] = tested on: Neuraminidase (Influenza A virus (strain A/USSR/90/1977 H1N1)), P03469 [H274Y]; test: Induction of drug resistance in influenza A virus H1N1 expressing neuraminidase H274Y mutant assessed as reduction in susceptibility relative to control; assay type: functional; parameters: scale not given: the % may be the effect or the level left
Neuraminidase = Neuraminidase (Influenza A virus (strain A/USSR/90/1977 H1N1), UniProt P03469, H274Y)

CCOC(=O)C1=C[C@@H](OC(CC)CC)[C@H](NC(C)=O)[C@@H](N)C1 [OSELTAMIVIR]
Activity [1]: <3.5% | Activity [2]: <3.5% | Activity [3]: <3.5% | Activity [4]: < 3.5%

CC(=O)N[C@@H]1[C@@H](N)CC(C(=O)O)=C[C@H]1OC1CCSC1 (stereo not given in full)
IC50 (Neuraminidase): 68 nM
